From EP2818472A1, “Imidazo[4,5-c]pyridine and pyrrolo[3,2-c]pyridine compounds as G-protein-coupled receptor kinase 5 (GRK5) modulators” (Max-Planck-Gesellschaft zur Förderung der Wissenschaften …, priority 2013, dated 2014) come the findings set out here.

For the assay, the system named is beta-TC6 cells. Kind of assay: Insulin HTRF assay (relative activity Ar) in beta-TC6 cells. The class given is cell-based, mouse. The settings on record: Mus musculus, Beta-TC6, 4 h, insulin HTRF, supernatant of beta-TC6 cells, incubation with test compound at 37°C for 2, 3, 4h; read-out: Ar (relative activity). The method, boiled down: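 beta-TC6 cells (15k/well, seeded 24 or 48 h) washed, then exposed to compound in induction buffer (0.5% DMSO final) for 2, 3 or 4 h at 37°C.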
(In TR-FRET formats the signal depends on donor and acceptor labels being close together.)
On to `Cn1c(Nc2ccccc2)nc2cnc(Nc3ccc(S(C)(=O)=O)cc3)cc21` [Compound 639, 1-methyl-N6-(4-methylsulfonylphenyl)-N2-phenyl-imidazo[4,5-c]pyridine-2,6-diamine], for which the Emax fell in the range of 50 to 100%.
With `Oc1cccc(Nc2cc3[nH]c(-c4cccc(F)c4)cc3cn2)c1` [Compound 10, 3-[[2-(3-fluorophenyl)-1H-pyrrolo[3,2-c]pyridin-6-yl]amino]phenol], the Emax lay within 50 to 100%.
To `COc1ccc(Nc2cc3c(cn2)nc(-c2ccccc2)n3C)cc1` [Compound 705, N-(4-methoxyphenyl)-1-methyl-2-phenyl-imidazo[4,5-c]pyridin-6-amine] belongs 30 to 50%; to `CNc1nc2cnc(Nc3ccc(NC(C)=O)cc3)cc2n1Cc1ccccc1` [Compound 527, N-[4-[[1-benzyl-2-(methylamino)imidazo[4,5-c]pyridin-6-yl]amino]phenyl]acetamide], 50 to 100%; to `c1cncc(Nc2nccc3[nH]c(-c4cccnc4)cc23)c1` [Compound 234, N,2-bis(3-pyridyl)-1H-pyrrolo[3,2-c]pyridin-4-amine], 50 to 100%.
Regarding `c1ccc(-c2nc3c(NCc4ccncc4)nccc3[nH]2)cc1` [Compound 335, 2-phenyl-N-(4-pyridylmethyl)-1H-imidazo[4,5-c]pyridin-4-amine], the Emax lay within 0 to 30%.
As for `COc1ccccc1-c1cc2c(Nc3cccc(NS(C)(=O)=O)c3)nccc2[nH]1` [Compound 298, N-[3-[[2-(2-methoxyphenyl)-1H-pyrrolo[3,2-c]pyridin-4-yl]amino]phenyl]methanesulfonamide], the Emax was 50 to 100%.
As for `Cn1c(NCC2CCCO2)nc2cnc(-c3cccc(Oc4ccccc4)c3)cc21` (centres unmarked) [Compound 851, 1-methyl-6-(3-phenoxyphenyl)-N-(tetrahydrofuran-2-ylmethyl)imidazo[4,5-c]pyridin-2-amine], the Emax was in the range of 30 to 50%.
In the case of `COc1cc(-n2cnc3cnc(-c4cccc(C(N)=O)c4)cc32)cc(OC)c1OC` [Compound 732, 3-[1-(3,4,5-trimethoxyphenyl)imidazo[4,5-c]pyridin-6-yl]benzamide], the Emax is 30 to 50%.
Take `CN(C)C(=O)c1ccc(-c2cc3c(Nc4ccccn4)nccc3n2C)cc1` [Compound 219, N,N-di methyl-4-[1-methyl-4-(2-pyridylamino)pyrrolo[3,2-c]pyridin-2-yl]benzamide]: the Emax is 30 to 50%.
For the compound `COc1ccc(Nc2nccc3[nH]c(-c4ccccc4Cl)nc23)cc1OC` [Compound 458, 2-(2-chlorophenyl)-N-(3,4-dimethoxyphenyl)-1H-imidazo[4,5-c]pyridin-4-amine], the Emax was 50 to 100%.
As for `COc1ccccc1-c1cc2c(N3CCOCC3)nccc2[nH]1` [Compound 193, 4-[2-(2-methoxyphenyl)-1H-pyrrolo[3,2-c]pyridin-4-yl]morpholine], the Emax lay in the range of 50 to 100%.
For the compound `c1ccc(-c2cc3cnc(N4CCOCC4)cc3[nH]2)cc1` [Compound 181, 4-(2-phenyl-1H-pyrrolo[3,2-c]pyridin-6-yl)morpholine], the Emax was above 100%.
Regarding `CC(=O)Nc1ccc(Nc2cc3c(cn2)nc(Cc2ccccc2)n3C)cc1` [Compound 700, N-[4-[(2-benzyl-1-methyl-imidazo[4,5-c]pyridin-6-yl)amino]phenyl]acetamide], the Emax fell in the range of 50 to 100%.
To `CC(=O)Nc1ccc(Nc2cc3c(cn2)nc(NCc2ccccc2)n3C)cc1` [Compound 617, N-[4-[[2-(benzylamino)-1-methyl-imidazo[4,5-c]pyridin-6-yl]amino]phenyl]acetamide] belongs 50 to 100%; to `CN(C)c1cccc(-c2cc3c(cn2)nc(NCC2CC2)n3C)c1` [Compound 828, N-(cyclopropylmethyl)-6-[3-(dimethylamino)phenyl]-1-methyl-imidazo[4,5-c]pyridin-2-amine], 30 to 50%.
Take `Cn1c(-c2ccsc2)cc2c(Nc3ccc4c(c3)OCO4)nccc21` [Compound 283, N-(1,3-benzodioxol-5-yl)-1-methyl-2-(3-thienyl)pyrrolo[3,2-c]pyridin-4-amine]: the Emax lay within 30 to 50%.
The result for `Clc1ccccc1Nc1cc2[nH]c(-c3cccnc3)cc2cn1` [Compound 78, N-(2-chlorophenyl)-2-(3-pyridyl)-1H-pyrrolo[3,2-c]pyridin-6-amine] reads 50 to 100%; that for `Cn1c(-c2cccc(Cl)c2)cc2c(Nc3ccncn3)nccc21` [Compound 316, 2-(3-chlorophenyl)-1-methyl-N-pyrimidin-4-yl-pyrrolo[3,2-c]pyridin-4-amine], 30 to 50%; that for `CC(=O)c1cccc(Nc2cc3c(cn2)nc(C)n3C)c1` [Compound 698, 1-[3-[(1,2-dimethylimidazo[4,5-c]pyridin-6-yl)amino]phenyl]ethanone], 30 to 50%.
Take `CNc1nc2cnc(Nc3ccc(OC)cc3OC)cc2n1CCN1CCOCC1` [Compound 553, N6-(2,4-dimethoxyphenyl)-N2-methyl-1-(2-morpholinoethyl)imidazo[4,5-c]pyridine-2,6-diamine]: the Emax was in the range of 30 to 50%.
To `Fc1cccc(-c2cc3cnc(N4CCOCC4)cc3[nH]2)c1` [Compound 12, 4-[2-(3-fluorophenyl)-1H-pyrrolo[3,2-c]pyridin-6-yl]morpholine] belongs above 100%; to `COc1ccc(Nc2nccc3[nH]c(-c4cccc(C)c4)nc23)cc1OC` [Compound 436, N-(3,4-dimethoxyphenyl)-2-(m-tolyl)-1H-imidazo[4,5-c]pyridin-4-amine], 50 to 100%.
As to `COc1ccc(Nc2cc3[nH]c(-c4ccc(C(=O)N(C)C)cc4)cc3cn2)cc1OC` [Compound 21, 4-[6-(3,4-dimethoxyanilino)-1H-pyrrolo[3,2-c]pyridin-2-yl]-N,N-dimethyl-benzamide], the Emax was 50 to 100%.
On to `CNc1nc2cnc(Nc3cccc(OC)c3)cc2n1-c1cccc(F)c1` [Compound 680, 1-(3-fluorophenyl)-N6-(3-methoxyphenyl)-N2-methyl-imidazo[4,5-c]pyridine-2,6-diamine], for which the Emax is 50 to 100%.
As to `CC(=O)c1cccc(Nc2cc3[nH]c(-c4cncn4C)cc3cn2)c1` [Compound 107, 1-[3-[[2-(3-methylimidazol-4-yl)-1H-pyrrolo[3,2-c]pyridin-6-yl]amino]phenyl]ethanone], the Emax fell in the range of 50 to 100%.
Consider `Cn1cc(-c2cc3cnc(N4CCOCC4)cc3n2C)cn1` [Compound 145, 4-[1-methyl-2-(1-methylpyrazol-4-yl)pyrrolo[3,2-c]pyridin-6-yl]morpholine], for which the Emax is above 100%.
To `COc1ccc(Nc2cc3[nH]c(-c4cccc(N)c4)cc3cn2)cn1` [Compound 1, 2-(3-aminophenyl)-N-(6-methoxy-3-pyridyl)-1H-pyrrolo[3,2-c]pyridin-6-amine] belongs 50 to 100%.
Take `CNc1nc2cnc(Nc3ccc(OC(F)(F)F)cc3)cc2n1CCOC` [Compound 773, 1-(2-methoxyethyl)-N2-methyl-N6-[4-(trifluoromethoxy)phenyl]imidazo[4,5-c]pyridine-2,6-diamine]: the Emax lay within 0 to 30%.
For `COc1ccc(Nc2nccc3[nH]c(-c4ccc(C)cc4)nc23)cn1` [Compound 379, N-(6-methoxy-3-pyridyl)-2-(p-tolyl)-1H-imidazo[4,5-c]pyridin-4-amine], the Emax was in the range of 50 to 100%.
As to `Cn1c(NCc2ccccc2F)nc2cnc(-c3ccc(N4CCOCC4)cc3)cc21` [Compound 653, N-[(2-fluorophenyl)methyl]-1-methyl-6-(4-morpholinophenyl)imidazo[4,5-c]pyridin-2-amine], the Emax is 50 to 100%.
Regarding `CN(C)c1ccc(-c2cc3c(cn2)nc(Nc2ccccc2)n3C)cc1` [Compound 631, 6-(4-dimethylaminophenyl)-1-methyl-N-phenyl-imidazo[4,5-c]pyridin-2-amine], the Emax is above 100%.
As for `CN(C)C(=O)c1ccc(-c2cc3cnc(Nc4ccc(S(C)(=O)=O)cc4)cc3[nH]2)cc1` [Compound 43, N,N-dimethyl-4-[6-(4-methylsulfonylanilino)-1H-pyrrolo[3,2-c]pyridin-2-yl]benzamide], the Emax fell in the range of 50 to 100%.
Take `CS(=O)(=O)Nc1cccc(Nc2nccc3[nH]c(-c4ccsc4)cc23)c1` [Compound 265, N-[3-[[2-(3-thienyl)-1H-pyrrolo[3,2-c]pyridin-4-yl]amino]phenyl]methanesulfonamide]: the Emax was in the range of 50 to 100%.
Take `COc1cccc(-c2nc3c(Nc4ccccc4)nccc3[nH]2)c1F` [Compound 472, 2-(2-fluoro-3-methoxy-phenyl)-N-phenyl-1H-imidazo[4,5-c]pyridin-4-amine]: the Emax lay in the range of 50 to 100%.
To `Cn1c(-c2cccnc2)cc2cnc(Nc3ccc4c(c3)OCO4)cc21` [Compound 93, N-(1,3-benzodioxol-5-yl)-1-methyl-2-(3-pyridyl)pyrrolo[3,2-c]pyridin-6-amine] belongs 50 to 100%; to `CN(C)c1ccc(-c2cc3c(Nc4ccc(S(C)(=O)=O)cc4)nccc3n2C)cc1` [Compound 230, 2-(4-dimethylaminophenyl)-1-methyl-N-(4-methylsulfonylphenyl)pyrrolo[3,2-c]pyridin-4-amine], 30 to 50%; to `CNc1nc2cnc(Nc3cccc(NC(C)=O)c3)cc2n1-c1ccccc1` [Compound 516, N-[3-[[2-(methylamino)-1-phenyl-imidazo[4,5-c]pyridin-6-yl]amino]phenyl]acetamide], 50 to 100%.
On to `Cn1c(NCC2CC2)nc2cnc(-c3ccccc3)cc21` [Compound 826, N-(cyclopropylmethyl)-1-methyl-6-phenyl-imidazo[4,5-c]pyridin-2-amine], for which the Emax lay within 30 to 50%.
The result for `COc1cccc(Nc2cc3c(cn2)cc(-c2ccc(C(=O)N(C)C)cc2)n3C)c1` [Compound 45, 4-[6-(3-methoxyanilino)-1-methyl-pyrrolo[3,2-c]pyridin-2-yl]-N,N-dimethyl-benzamide] reads 30 to 50%.
As for `CN(C)C(=O)c1ccc(-c2cc3cnc(Nc4cccc(Cl)c4)cc3[nH]2)cc1` [Compound 23, 4-[6-(3-chloroanilino)-1H-pyrrolo[3,2-c]pyridin-2-yl]-N,N-dimethyl-benzamide], the Emax lay in the range of 30 to 50%.
